In patent publication EP0486702A1, “PHENYL 4-GUANIDINOBENZOATE DERIVATIVE, PROCESS FOR PRODUCING THE SAME, AND PROTEASE INHIBITOR CONTAINING THE SAME” (Asahi Kasei Kogyo Kabushiki Kaisha, priority 1990, dated 1991):
Counter-ions that a name gives are not always drawn. Like-named read-outs stand apart in the source and are kept apart here.

Assays:
factor Xa = factor Xa (Homo sapiens, UniProt P00742); experiment: in vitro factor Xa inhibition, substrate Boc-Ile-Glu-Gly-Arg-7-amido-4-methylcoumalin; assay type: biochemical; settings: 0.2 M Tris-HCl, 0.02 M CaCl2, 0.005% Triton X-100, pH 8.0, 25°C, 20 minutes
male rats of Wistar line = experiment: caerulein-induced acute pancreatitis edema, prevention by oral administration; assay type: in vivo; settings: for Serum amylase / % Pancreas wt.: 15 minutes before caerulein (40 µg/kg i.p. twice); for Serum amylase: blood 6 hours after second caerulein; for % Pancreas wt.: pancreas wet weight to body weight, 6 hours after second caerulein
Protocol: […] Experiments were started at eight o'clock in the morning, with the animals in each group under satiation conditions. After measuring their body weights, caerulein pancreatitis was prepared by intraperitoneal administration of caerulein (mfd. by Kyowa Hakko K.K.) (40 μg/kg) twice at one hour interval. Six hours after the second administration, each rat was subjected to laparotomy to collect blood from the abdominal aorta and to excise the pancreas. […] Wet weight of the excised pancreas was measured and its ratio to the body weight was calculated. As a comparative example, the same process was repeated except that the inventive compound was replaced by the compound used in Pharmacological Trial 1 as Comparative Example 1, a compound which has been disclosed in JP-A-51-138642.

plasmin = plasmin (Homo sapiens, UniProt P00747); experiment: in vitro plasmin inhibition, substrate Boc-Val-Leu-Lys-7-amido-4-methylcoumalin; assay type: biochemical
Text: (§1) The method disclosed in JP-A-2-101017 was slightly modified and used for the measurement of the function of typical compounds belonging to the compound (I) of the present invention (Compounds 39, 3, 2, 26, 31 and 10) in terms of their in vitro activities to inhibit trypsin, thrombin, plasmin, factor Xa and elastase.
(§2) Substrate used for the enzyme reaction were: benzoyl-Arg-7-amido-4-methylcoumalin for trypsin, Boc-Val-Pro-Arg-7-amido-4-methylcoumalin for thrombin, Boc-Val-Leu-Lys-7-amido-4-methylcoumalin for plasmin, Boc-Ile-Glu-Gly-Arg-7-amido-4-methylcoumalin for factor Xa and methoxysuccinyl-Ala-Ala-Pro-Val-7-amido-4-methylcoumalin for elastase. […] Each enzyme reaction was carried out in 0.2 M Tris-HCl buffer supplemented with 0.02 M CaCl₂ and 0.005% Triton X-100 at pH 8.0 for trypsin, thrombin, plasmin and factor Xa or at pH 7.2 for elastase. Each sample solution to be measured was mixed with each enzyme solution and the reaction mixture was incubated at 25°C for 60 minutes in the case of trypsin or for 20 minutes in other cases of enzymes. In this instance, a compound disclosed in JP-A-51-138642 was used as a Comparative Example 1, and a compound disclosed in JP-A-63-165357 as a Comparative Example 2.

trypsin = biological target: T1, trypsin (Bos taurus, UniProt P00760); experiment: in vitro trypsin inhibition, fluorogenic substrate benzoyl-Arg-7-amido-4-methylcoumalin; assay type: biochemical; settings: 0.2 M Tris-HCl, 0.02 M CaCl2, 0.005% Triton X-100, pH 8.0, 25°C, 60 minutes
T1 sequence (P00760 24-246): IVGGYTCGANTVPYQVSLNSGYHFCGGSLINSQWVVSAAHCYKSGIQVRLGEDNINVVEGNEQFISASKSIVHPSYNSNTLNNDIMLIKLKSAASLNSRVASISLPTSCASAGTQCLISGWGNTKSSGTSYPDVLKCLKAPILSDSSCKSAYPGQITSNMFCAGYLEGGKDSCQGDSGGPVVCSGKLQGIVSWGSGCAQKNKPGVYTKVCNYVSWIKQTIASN
Text: as §1, §2

thrombin = thrombin (Homo sapiens, UniProt P00734); experiment: in vitro thrombin inhibition, substrate Boc-Val-Pro-Arg-7-amido-4-methylcoumalin; assay type: biochemical; settings: 0.2 M Tris-HCl, 0.02 M CaCl2, 0.005% Triton X-100, pH 8.0, 25°C, 20 minutes
[1] = 100 mg/kg oral, caerulein alone 817 ± 103
[2] = 100 mg/kg oral, caerulein alone 0.88 ± 0.07
[3] = 0.2 M Tris-HCl, 0.02 M CaCl2, 0.005% Triton X-100, pH 8.0, 25°C, 20 minutes

Chain of plasmin (P00747 581-810 limits assumed, species assumed): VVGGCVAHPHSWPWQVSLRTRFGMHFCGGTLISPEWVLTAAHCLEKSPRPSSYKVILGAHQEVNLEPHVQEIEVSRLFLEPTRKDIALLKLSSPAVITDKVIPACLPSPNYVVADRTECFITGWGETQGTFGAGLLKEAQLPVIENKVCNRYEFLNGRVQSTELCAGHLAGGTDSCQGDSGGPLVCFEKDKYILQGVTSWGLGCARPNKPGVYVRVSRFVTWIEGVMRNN
Chain of plasmin (P00747 97-580 partner limits assumed, species assumed): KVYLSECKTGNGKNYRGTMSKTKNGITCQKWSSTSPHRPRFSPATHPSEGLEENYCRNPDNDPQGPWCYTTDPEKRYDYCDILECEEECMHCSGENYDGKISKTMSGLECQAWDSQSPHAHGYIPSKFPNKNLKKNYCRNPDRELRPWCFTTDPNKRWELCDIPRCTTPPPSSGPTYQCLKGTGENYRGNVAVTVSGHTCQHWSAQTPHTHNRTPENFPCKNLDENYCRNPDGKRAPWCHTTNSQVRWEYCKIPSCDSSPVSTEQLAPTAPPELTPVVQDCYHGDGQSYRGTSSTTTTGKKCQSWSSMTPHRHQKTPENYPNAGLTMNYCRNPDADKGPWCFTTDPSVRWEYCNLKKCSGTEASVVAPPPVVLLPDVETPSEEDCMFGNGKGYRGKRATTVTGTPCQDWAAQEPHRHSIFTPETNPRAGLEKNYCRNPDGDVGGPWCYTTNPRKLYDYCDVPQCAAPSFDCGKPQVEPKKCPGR
Chain of factor Xa (P00742 235-488 limits assumed): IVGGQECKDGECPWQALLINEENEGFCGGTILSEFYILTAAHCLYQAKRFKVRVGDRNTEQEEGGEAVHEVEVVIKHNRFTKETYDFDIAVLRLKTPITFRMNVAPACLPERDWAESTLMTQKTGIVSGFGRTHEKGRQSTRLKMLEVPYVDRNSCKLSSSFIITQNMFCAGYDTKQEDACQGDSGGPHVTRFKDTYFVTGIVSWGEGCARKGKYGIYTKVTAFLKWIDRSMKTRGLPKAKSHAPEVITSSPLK
Chain of factor Xa (P00742 41-179 partner limits assumed): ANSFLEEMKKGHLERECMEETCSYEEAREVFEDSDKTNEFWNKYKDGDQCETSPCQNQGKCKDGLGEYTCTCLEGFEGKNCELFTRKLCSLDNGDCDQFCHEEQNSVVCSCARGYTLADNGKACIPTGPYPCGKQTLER

| IC50 (factor Xa) [nM] | IC50 (trypsin) [nM] | IC50 (plasmin; [3]) [nM] | IC50 (thrombin) [nM] | SMILES | Serum amylase (male rats of Wistar line; [1]) [IU/ml] | % Pancreas wt. (male rats of Wistar line; [2]) [%] | histological observation of the pancreas (pancreatitis-specific signs) (male rats of Wistar line; rat group of 100 mg oral administration, caerulein pancreatitis) | IC50 (plasmin) [nM] | Serum amylase (male rats of Wistar line; 10 mg/kg oral, caerulein alone 817 ± 103, no treatment 134 ± 11) [IU/ml] | % Pancreas wt. (male rats of Wistar line; 10 mg/kg oral, caerulein alone 0.88 ± 0.07, no treatment 0.38 ± 0.06) [%] | Serum amylase (male rats of Wistar line; 50 mg/kg oral, caerulein alone 817 ± 103) [IU/ml] | % Pancreas wt. (male rats of Wistar line; 50 mg/kg oral, caerulein alone 0.88 ± 0.07) [%] | histological observation of the pancreas (male rats of Wistar line; rat groups of 10, 50 and 100 mg oral doses, caerulein pancreatitis) |
| --- | --- | --- | --- | --- | --- | --- | --- | --- | --- | --- | --- | --- | --- |
| 340 | 0.25 | 15 | 69 | CC1(C(=O)Oc2cc(Cl)cc(OC(=O)c3ccc(NC(=N)N)cc3)c2)CC1 [Compound 26, 3-chloro-5-(1-methylcyclopropylcarbonyloxy)phenyl 4-guanidinobenzoate methanesulfonic acid salt] |  |  |  |  |  |  |  |  |  |
| 3600 | 0.47 | 10 | 580 | N=C(N)Nc1ccc(C(=O)Oc2cc(Cl)cc(OC(=O)C3CCCCC3)c2)cc1 [Compound 31, 3-chloro-5-cyclohexylcarbonyloxyphenyl 4-guanidinobenzoate] |  |  |  |  |  |  |  |  |  |
| 160 | 0.36 | 12 | 21 | CS(=O)(=O)O.N=C(N)Nc1ccc(C(=O)Oc2cc(Cl)cc(OS(=O)(=O)C=Cc3ccccc3)c2)cc1 [Compound 39, 3-chloro-5-(β-styrenesulfonyloxy)phenyl 4-guanidinobenzoate methanesulfonic acid salt] | 99 ± 17 | 0.39 ± 0.06 |  |  | 556 ± 31 | 0.99 ± 0.16 | 362 ± 15 | 0.66 ± 0.04 | no evident appearance of vacuoles inside the acinic cells, and the appearance of interstitial edema was almost negligible |
| 8500 | 9.5 | 90 | 880 | N=C(N)Nc1ccc(C(=O)Oc2cc(Cl)cc(Cl)c2)cc1 [Comp. Ex. 2, reference compound] |  |  |  |  |  |  |  |  |  |

Further lines, the molecule ahead of its results:

| SMILES | IC50 (factor Xa) [nM] | IC50 (trypsin) [nM] | IC50 (plasmin; [3]) [nM] | IC50 (thrombin) [nM] | Serum amylase (male rats of Wistar line; [1]) [IU/ml] | % Pancreas wt. (male rats of Wistar line; [2]) [%] | histological observation of the pancreas (pancreatitis-specific signs) (male rats of Wistar line; rat group of 100 mg oral administration, caerulein pancreatitis) | IC50 (plasmin) [nM] | Serum amylase (male rats of Wistar line; 10 mg/kg oral, caerulein alone 817 ± 103, no treatment 134 ± 11) [IU/ml] | % Pancreas wt. (male rats of Wistar line; 10 mg/kg oral, caerulein alone 0.88 ± 0.07, no treatment 0.38 ± 0.06) [%] | Serum amylase (male rats of Wistar line; 50 mg/kg oral, caerulein alone 817 ± 103) [IU/ml] | % Pancreas wt. (male rats of Wistar line; 50 mg/kg oral, caerulein alone 0.88 ± 0.07) [%] | histological observation of the pancreas (male rats of Wistar line; rat groups of 10, 50 and 100 mg oral doses, caerulein pancreatitis) |
| --- | --- | --- | --- | --- | --- | --- | --- | --- | --- | --- | --- | --- | --- |
| CN(C)C(=O)COC(=O)Cc1ccc(OC(=O)c2ccc(NC(=N)N)cc2)cc1 [Comp. Ex. 1, reference compound] | 56000 | 25 |  |  | 216 ± 7 | 0.47 ± 0.09 | decrease in the pancreatitis-specific signs, but the reducing effects were inferior to those of Compound 39 | 120 |  |  |  |  |  |
| N=C(N)Nc1ccc(C(=O)Oc2ccc(OC(F)(F)F)cc2)cc1 [Compound 3, 4-trifluoromethoxyphenyl 4-guanidinobenzoate] | 440 | 0.84 | 18 | 39 |  |  |  |  |  |  |  |  |  |
| N=C(N)Nc1ccc(C(=O)Oc2cccc(OC(F)(F)F)c2)cc1 [Compound 2, 3-trifluoromethoxyphenyl 4-guanidinobenzoate] | 430 | 0.17 | 43 | 77 |  |  |  |  |  |  |  |  |  |
| CON=C(C)c1cccc(OC(=O)c2ccc(NC(=N)N)cc2)c1 [Compound 10, 3-(1-methoxyiminoethyl)phenyl 4-guanidinobenzoate] | 2500 | 0.52 | 63 | 140 |  |  |  |  |  |  |  |  |  |
